Series [1] concerns scopolamine and dizocilpine (MK-801) induced amnesia or amyloid peptide β25-35 (Aβ25-35). Description: anti-amnesic action in mice. The format is in vivo. As to conditions: per os (po). The procedure: The above molecular profile is the basis for AE14 modulatory role over the G-protein coupled receptors (GPCRs) and its pharmacological properties: anti-amnesic action (antagonistic action against scopolamine and dizocilpine (MK-801) induced amnesia or amyloid peptide β25-35 (Aβ25-35), at low doses (from 0.03 mg/kg administered per os (po), in mice). This unique new profile of AE14: anti-apoptotic via agonistic sigma-1 regulation of the volume regulated chloride channels (VRCC), anti-oxidative stress via agonistic action on the sigma-1 receptors of the ER-mitochondrion.

In series [2] the test system is ER stress. Description: protocols of acute or chronic ER and cellular stress, in vitro and in vivo. Set-up: species or system mice.
Series [3] concerns the target σ-2 receptors (Homo sapiens, UniProt Q5BJF2). Description: affinity for σ-2 receptors. The format is binding.
The target of series [4] is T1, σ-1 receptors (Homo sapiens, UniProt Q99720). Description: affinity for σ-1 receptors. In kind it is binding. As to conditions: read-out: affinity for σ-1 receptors (pKi) (converted).
T1 sequence (Q99720 whole entry): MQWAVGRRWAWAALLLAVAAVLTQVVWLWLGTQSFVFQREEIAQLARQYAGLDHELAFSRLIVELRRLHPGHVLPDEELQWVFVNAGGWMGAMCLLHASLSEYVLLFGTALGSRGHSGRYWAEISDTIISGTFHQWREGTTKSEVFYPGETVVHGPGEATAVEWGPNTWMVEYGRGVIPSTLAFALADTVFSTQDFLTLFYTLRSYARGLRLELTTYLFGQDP
Series [5] concerns PTZ-induced tonic crises. Description: protection against pentylenetetrazole (PTZ) induced stress and tonic crises. As to conditions: in vitro or in vivo, on mice.
The target in series [6] is T1, σ-1 receptors. Nature of the series: agonistic/antagonistic action on σ-1 receptors.
Series [7] deals with cancer cells: colorectal, prostate, ovarian renal, pancreas, lung, gliomas, glioblastomas leukemia, lymphomas, melanomas, sarcomas and hepatoma.
Series [8] has as its system primary (drug resistant) melanoma. Nature of the series: in vivo anticancer activity in mice xenografts. From the text: All molecules present strong chemical affinities (sub-nanomolar to micromolar) for α-1 receptors with antagonistic action (except AdAE and AdPhAE which are weak agonists) and with nanomolar to micromolar affinities for α-2 receptors and agonistic action. Therefore, all molecules above and their derivatives are pro-apoptotic and only at very low concentrations or doses are anti-apoptotic. All molecules above are toxic to the cancer cells: colorectal, prostate, ovarian renal, pancreas, lung, gliomas, glioblastomas leukemia, lymphomas, melanomas, sarcomas and hepatoma, with antiproliferative and cytotoxic concentrations usually lower than 10 microMolar (μM), for more than 50 of the above derivatives. […] The pharmacological profile of the above molecules is totally prototypical and original giving the possibility of a therapeutic synergy with the clinically used anticancer drugs with simultaneous antagonism and protection against the most grave secondary effects i.e., neuropathic pain and disability induced by the clinically used anticancer drugs.

In series [9] the test system is glioblastomas. Description: in vitro cytotoxicity, glioblastomas. The format is cell-based.
Series [10] deals with colon. Description: in vitro cytotoxicity, colon. The format is cell-based.
For series [11], the system named is leukaemia. Description: in vitro cytotoxicity, leukaemia. In kind it is cell-based.
Series [12] relates to breast. Nature of the series: in vitro cytotoxicity, breast. In kind it is cell-based.
Series [13] concerns primary (drug resistant) melanoma. Nature of the series: in vitro cytotoxicity, primary melanoma. The format is cell-based.
The subject of series [14] is lung. Nature of the series: in vitro cytotoxicity, lung. The format is cell-based.

Molecules are shown by their SMILES.

The values that follow come from patent publication US9180106B2, “Sigma receptors ligands with anti-apoptotic and/or pro-apoptotic properties, over cellular mechanisms, exhibiting prototypical cytoprotective and also anti-cancer activity” (Anavex Life Sciences Corp., priority 2009, dated 2015).

Chain of σ-2 receptors (Q5BJF2 whole entry): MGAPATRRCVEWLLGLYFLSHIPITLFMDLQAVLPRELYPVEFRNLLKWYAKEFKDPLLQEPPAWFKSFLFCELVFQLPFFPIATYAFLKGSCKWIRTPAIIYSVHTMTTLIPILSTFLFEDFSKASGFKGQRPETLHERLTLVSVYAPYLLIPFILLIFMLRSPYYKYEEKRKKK

Take `CN(C)CC1COC(c2ccccc2)(c2ccccc2)C1` (centres unmarked) [AE14, Tetrahydro-N,N,-Dimethyl-5,5-Diphenyl-3-Furanomethanamine]: the “anti-amnesic action, active doses” value in series [1] was at least 0.03 mg/kg. Further, the “effect on ER stress” value in [2] (acute or chronic cellular stress, oligopeptides or streptozocin, in vitro and in vivo on mice) is recorded as “antagonized the ER stress”. Besides, the Ki is above 10000 nM in series [3] and 25.1 nM in [4]. Besides, the “affinity for σ-2 receptors, times lower than for σ-1” value in series [3] (σ-2 versus σ-1) is on record as “more than 100 times”.
With `CNCC1CCOC1(c1ccccc1)c1ccccc1` (centres unmarked) [AE37 Met, Tetrahydro-N-Methyl-2,2-Diphenyl-3-Furanomethanamine], in series [5], the “protection against ER-mitochondrion anoxia and oxidative stress caused by PTZ” value is given as “exceptional protection”. For the same compound, in series [2] (for the properties mentioned for AE37), the “activity relative to AE37” value is listed as “slightly more active than AE37”.
With `CN(C)CC1CCOC1(c1ccccc1)c1ccccc1` (centres unmarked) [AE37, Tetrahydro-N,N-Dtiviethyl-2,2-Dinienyl-3-Furanomethanamine], in series [2] (chronic ER and cellular stress, in vitro and in vivo on mice), the anti-apoptotic properties result was “high anti-apoptotic properties”. Also, the “action on σ-1 receptors” value in [6] was “selective σ-1 agonist”. Moreover, the “affinity for σ-2 receptors” value in series [3] is “no affinity”. Moreover, the Ki in [4] is 501 nM.
Take `COc1ccc(CCN2CCC(Nc3nc4ccccc4n3Cc3ccc(F)cc3)CC2)cc1` [AST, Astemizole]: the “cytotoxicity, in vitro” value in series [7] was 3.0 to 5.0 µM.
With `CN(C)CC1COC2(C1)C1CC3CC(C1)CC2C3` (centres unmarked) [AdAE, (DIHYDRO-4-(DIMETHYLAMINOMETHYL)SPIRO {FURANE-2(3H),2′-TRICYCLO[3.3.1.13,7]DECANE}], the “action on σ-1 receptors” value in series [6] is on record as “weak agonists”.
In the case of `CN(C)CC1COC(c2ccccc2)(C23CC4CC(CC(C4)C2)C3)C1` (centres unmarked) [AdPhAE, 5-(TRICYCLO[3.3.1.13,7]DEC-1-YL)-TETRAHYDRO-N,N-DIMETHYL-5-PHENYL-3-FURANEMETHANAMINE], the “action on σ-1 receptors” value in [6] is given as “weak agonists”.
Consider `CN(C)/N=N/c1[nH]cnc1C(N)=O` [Dacarbazine], for which the “in vivo anticancer activity” value in series [8] is “inactive”.
Turning to `CN(C)c1ccc2nc3ccc(=[N+](C)C)cc-3sc2c1` [MB, Methylene blue], the “cytotoxicity, in vitro” value in series [9] was around 2.0 µM; in series [10] it was around 2.0 µM; in series [11] it was “lower than 1.0 μM”; in series [12], around 2.0 µM; in series [13], “lower than 1.0 μM”; in series [14], “lower than 1.0 μM”. The “in vivo anticancer activity” value in [8] is “confirmed in vivo”.
`CCN(CC)CCCC(C)Nc1c2ccc(Cl)cc2nc2ccc(OC)cc12` (centres unmarked) [QNC, Quinacrine]: the “in vivo anticancer activity” value in series [8] was “outstanding in vivo activity”.
